Measured values published in ChEMBL document CHEMBL1201862, “PubChem BioAssay data set” (2004).
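Exposure lasted 48 hours, with cells grown in 96-well plates and compounds tested at five concentrations. GI50 marks 50% less growth.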 Active and inactive are the calls of the source. Cut-off read from the data, not from the text of the source: active = GI50 up to about 1.1 µM and inactive = higher.

Experiments:
Experiment in all cases: inhibition of tumour cell growth, NCI panel, 48 h
MOLT-4 = test system: MOLT-4
OVCAR-8 = test system: OVCAR-8
HCT-116 = test system: HCT-116
M14 = test system: M14
MDA-N = test system: MDA-N
EKVX = test system: EKVX
CAKI-1 = test system: CAKI-1
OVCAR-3 = test system: OVCAR-3
SK-OV-3 = test system: SK-OV-3
A549 = test system: A549
Hs-578T = test system: Hs-578T
A498 = test system: A498
UO-31 = test system: UO-31
SNB-19 = test system: SNB-19
Malme-3M = test system: Malme-3M
T47D = test system: T47D
SF-268 = test system: SF-268
BT-549 = test system: BT-549
COLO 205 = test system: COLO 205
NCI/ADR-RES = test system: NCI/ADR-RES
SN12C = test system: SN12C
TK-10 = test system: TK-10
SF-539 = test system: SF-539
OVCAR-5 = test system: OVCAR-5
HT-29 = test system: HT-29
HL-60 = test system: HL-60
DU-145 = test system: DU-145
OVCAR-4 = test system: OVCAR-4
MDA-MB-435 = test system: MDA-MB-435
PC-3 = test system: PC-3
HOP-92 = test system: HOP-92
UACC-62 = test system: UACC-62
HCT-15 = test system: HCT-15
NCI-H522 = test system: NCI-H522
MDA-MB-231 = test system: MDA-MB-231
RXF 393 = test system: RXF 393
NCI-H460 = test system: NCI-H460
HCC 2998 = test system: HCC 2998
CCRF-CEM = test system: CCRF-CEM
KM12 = test system: KM12
NCI-H23 = test system: NCI-H23
IGROV-1 = test system: IGROV-1
SW-620 = test system: SW-620
RPMI-8226 = test system: RPMI-8226
K562 = test system: K562
UACC-257 = test system: UACC-257
U-251 = test system: U-251
SF-295 = test system: SF-295
SK-MEL-5 = test system: SK-MEL-5
LOX IMVI = test system: LOX IMVI
MCF7 = test system: MCF7
786-0 = test system: 786-0
HOP-62 = test system: HOP-62
ACHN = test system: ACHN
SNB-75 = test system: SNB-75
SK-MEL-2 = test system: SK-MEL-2
SK-MEL-28 = test system: SK-MEL-28
NCI-H226 = test system: NCI-H226

SMILES: S=c1[nH]c2c(Cl)c(Cl)c(Cl)c(Cl)c2[nH]1
- GI50 (MOLT-4): 4.8 µM (inactive)
- GI50 (OVCAR-8): 23.2 µM (inactive)
- GI50 (HCT-116): 21.1 µM (inactive)
- GI50 (M14): 21.4 µM (inactive)
- GI50 (MDA-N): 17.3 µM (inactive)
- GI50 (EKVX): 11.8 µM (inactive)
- GI50 (CAKI-1): 25.7 µM (inactive)
- GI50 (OVCAR-3): 26.7 µM (inactive)
- GI50 (SK-OV-3): 20.1 µM (inactive)
- GI50 (A549): 25.2 µM (inactive)
- GI50 (Hs-578T): 18.5 µM (inactive)
- GI50 (A498): 22.2 µM (inactive)
- GI50 (UO-31): 16 µM (inactive)
- GI50 (SNB-19): 27.9 µM (inactive)
- GI50 (Malme-3M): 14.9 µM (inactive)
- GI50 (T47D): 52.5 µM (inactive)
- GI50 (SF-268): 12.1 µM (inactive)
- GI50 (BT-549): 17.9 µM (inactive)
- GI50 (COLO 205): 17.2 µM (inactive)
- GI50 (NCI/ADR-RES): 18.5 µM (inactive)
- GI50 (SN12C): 20.6 µM (inactive)
- GI50 (TK-10): 22 µM (inactive)
- GI50 (SF-539): 12.1 µM (inactive)
- GI50 (OVCAR-5): 25.8 µM (inactive)
- GI50 (HT-29): 24 µM (inactive)
- GI50 (HL-60): 1.75 µM (inactive)
- GI50 (DU-145): 36.1 µM (inactive)
- GI50 (OVCAR-4): 5.94 µM (inactive)
- GI50 (MDA-MB-435): 17.5 µM (inactive)
- GI50 (PC-3): 22.2 µM (inactive)
- GI50 (HOP-92): 19.5 µM (inactive)
- GI50 (UACC-62): 15.2 µM (inactive)
- GI50 (HCT-15): 22 µM
- GI50 (NCI-H522): 1.2 µM (inactive)
- GI50 (MDA-MB-231): 17.8 µM (inactive)
- GI50 (RXF 393): 18.1 µM (inactive)
- GI50 (NCI-H460): 19.4 µM (inactive)
- GI50 (HCC 2998): 0.955 µM (active)
- GI50 (CCRF-CEM): 1.16 µM (inactive)
- GI50 (KM12): 15.5 µM (inactive)
- GI50 (NCI-H23): 29.2 µM (inactive)
- GI50 (IGROV-1): 14.1 µM (inactive)
- GI50 (SW-620): 19.8 µM (inactive)
- GI50 (RPMI-8226): 3.52 µM (inactive)
- GI50 (K562): 7.23 µM (inactive)
- GI50 (UACC-257): 19.4 µM (inactive)
- GI50 (U-251): 31.7 µM (inactive)
- GI50 (SF-295): 17.5 µM (inactive)
- GI50 (SK-MEL-5): 17.6 µM (inactive)
- GI50 (LOX IMVI): 8.69 µM (inactive)
- GI50 (MCF7): 16.8 µM (inactive)
- GI50 (786-0): 26.2 µM (inactive)
- GI50 (HOP-62): 25.1 µM (inactive)
- GI50 (ACHN): 15.8 µM (inactive)

SMILES: COc1cc(OC)c(OC)cc1/C=C/c1ccccn1
- GI50 (MOLT-4): > 10 µM (inactive)
- GI50 (OVCAR-8): > 10 µM (inactive)
- GI50 (HCT-116): > 10 µM (inactive)
- GI50 (M14): > 10 µM (inactive)
- GI50 (MDA-N): > 10 µM (inactive)
- GI50 (EKVX): > 10 µM (inactive)
- GI50 (CAKI-1): > 10 µM (inactive)
- GI50 (OVCAR-3): > 10 µM (inactive)
- GI50 (SK-OV-3): > 10 µM (inactive)
- GI50 (SNB-75): > 10 µM (inactive)
- GI50 (A549): > 10 µM (inactive)
- GI50 (Hs-578T): > 10 µM (inactive)
- GI50 (A498): > 10 µM (inactive)
- GI50 (UO-31): > 10 µM (inactive)
- GI50 (SNB-19): > 10 µM (inactive)
- GI50 (Malme-3M): > 10 µM (inactive)
- GI50 (T47D): > 10 µM (inactive)
- GI50 (SF-268): > 10 µM (inactive)
- GI50 (BT-549): > 10 µM (inactive)
- GI50 (SK-MEL-2): > 10 µM (inactive)
- GI50 (COLO 205): > 10 µM (inactive)
- GI50 (NCI/ADR-RES): > 10 µM (inactive)
- GI50 (SN12C): > 10 µM (inactive)
- GI50 (TK-10): > 10 µM (inactive)
- GI50 (SF-539): > 10 µM (inactive)
- GI50 (OVCAR-5): > 10 µM (inactive)
- GI50 (HT-29): > 10 µM (inactive)
- GI50 (HL-60): > 10 µM (inactive)
- GI50 (DU-145): > 10 µM (inactive)
- GI50 (OVCAR-4): > 10 µM (inactive)
- GI50 (MDA-MB-435): > 10 µM (inactive)
- GI50 (SK-MEL-28): > 10 µM (inactive)
- GI50 (PC-3): > 10 µM (inactive)
- GI50 (HOP-92): > 10 µM (inactive)
- GI50 (UACC-62): > 10 µM (inactive)
- GI50 (HCT-15): > 10 µM
- GI50 (NCI-H522): > 10 µM (inactive)
- GI50 (MDA-MB-231): > 10 µM (inactive)
- GI50 (RXF 393): > 10 µM (inactive)
- GI50 (NCI-H460): > 10 µM (inactive)
- GI50 (HCC 2998): > 10 µM (inactive)
- GI50 (CCRF-CEM): > 10 µM (inactive)
- GI50 (KM12): > 10 µM (inactive)
- GI50 (NCI-H23): > 10 µM (inactive)
- GI50 (IGROV-1): > 10 µM (inactive)
- GI50 (SW-620): > 10 µM (inactive)
- GI50 (K562): > 10 µM (inactive)
- GI50 (UACC-257): > 10 µM (inactive)
- GI50 (U-251): > 10 µM (inactive)
- GI50 (SF-295): > 10 µM (inactive)
- GI50 (SK-MEL-5): > 10 µM (inactive)
- GI50 (LOX IMVI): > 10 µM (inactive)
- GI50 (MCF7): > 10 µM (inactive)
- GI50 (NCI-H226): > 10 µM (inactive)
- GI50 (786-0): > 10 µM (inactive)
- GI50 (HOP-62): > 10 µM (inactive)
- GI50 (ACHN): > 10 µM (inactive)

SMILES: CCN(CC)CC1CCCCN1CC(=O)N1c2ccccc2NC(=O)CC1C (configuration not stated)
- GI50 (MOLT-4): > 100 µM (inactive)
- GI50 (OVCAR-8): > 100 µM (inactive)
- GI50 (HCT-116): > 100 µM (inactive)
- GI50 (M14): > 100 µM (inactive)
- GI50 (MDA-N): > 100 µM (inactive)
- GI50 (EKVX): > 100 µM (inactive)
- GI50 (CAKI-1): > 100 µM (inactive)
- GI50 (OVCAR-3): > 100 µM (inactive)
- GI50 (SK-OV-3): > 100 µM (inactive)
- GI50 (A549): > 100 µM (inactive)
- GI50 (Hs-578T): > 100 µM (inactive)
- GI50 (A498): > 100 µM (inactive)
- GI50 (UO-31): > 100 µM (inactive)
- GI50 (SNB-19): > 100 µM (inactive)
- GI50 (Malme-3M): > 100 µM (inactive)
- GI50 (T47D): > 100 µM (inactive)
- GI50 (SF-268): > 100 µM (inactive)
- GI50 (BT-549): > 100 µM (inactive)
- GI50 (SK-MEL-2): > 100 µM (inactive)
- GI50 (COLO 205): > 100 µM (inactive)
- GI50 (NCI/ADR-RES): > 100 µM (inactive)
- GI50 (SN12C): > 100 µM (inactive)
- GI50 (TK-10): > 100 µM (inactive)
- GI50 (SF-539): > 100 µM (inactive)
- GI50 (OVCAR-5): > 100 µM (inactive)
- GI50 (HT-29): > 100 µM (inactive)
- GI50 (HL-60): > 100 µM (inactive)
- GI50 (DU-145): > 100 µM (inactive)
- GI50 (OVCAR-4): > 100 µM (inactive)
- GI50 (MDA-MB-435): > 100 µM (inactive)
- GI50 (SK-MEL-28): > 100 µM (inactive)
- GI50 (PC-3): > 100 µM (inactive)
- GI50 (HOP-92): > 100 µM (inactive)
- GI50 (HCT-15): > 100 µM
- GI50 (NCI-H522): > 100 µM (inactive)
- GI50 (MDA-MB-231): > 100 µM (inactive)
- GI50 (RXF 393): > 100 µM (inactive)
- GI50 (NCI-H460): > 100 µM (inactive)
- GI50 (HCC 2998): > 100 µM (inactive)
- GI50 (CCRF-CEM): > 100 µM (inactive)
- GI50 (KM12): > 100 µM (inactive)
- GI50 (NCI-H23): > 100 µM (inactive)
- GI50 (IGROV-1): > 100 µM (inactive)
- GI50 (SW-620): > 100 µM (inactive)
- GI50 (RPMI-8226): > 100 µM (inactive)
- GI50 (K562): > 100 µM (inactive)
- GI50 (UACC-257): > 100 µM (inactive)
- GI50 (U-251): > 100 µM (inactive)
- GI50 (SF-295): > 100 µM (inactive)
- GI50 (SK-MEL-5): > 100 µM (inactive)
- GI50 (LOX IMVI): > 100 µM (inactive)
- GI50 (MCF7): > 100 µM (inactive)
- GI50 (NCI-H226): > 100 µM (inactive)
- GI50 (786-0): > 100 µM (inactive)
- GI50 (HOP-62): > 100 µM (inactive)
- GI50 (ACHN): > 100 µM (inactive)
